23 compounds from patent US20230183239A1, “ECTONUCLEOTIDE PYROPHOSPHATASE-PHOSPHODIESTERASE 1 (ENPP-1) INHIBITORS AND USES THEREOF” (AbbVie Inc., priority 2017, published 2023) can be followed below.

Bounds are passed on as bounds.

Common to all, as to assay type: biochemical
In experiment [1] the target is T1, ENPP1 (Homo sapiens, UniProt P22413).
T1 sequence (P22413 1-925): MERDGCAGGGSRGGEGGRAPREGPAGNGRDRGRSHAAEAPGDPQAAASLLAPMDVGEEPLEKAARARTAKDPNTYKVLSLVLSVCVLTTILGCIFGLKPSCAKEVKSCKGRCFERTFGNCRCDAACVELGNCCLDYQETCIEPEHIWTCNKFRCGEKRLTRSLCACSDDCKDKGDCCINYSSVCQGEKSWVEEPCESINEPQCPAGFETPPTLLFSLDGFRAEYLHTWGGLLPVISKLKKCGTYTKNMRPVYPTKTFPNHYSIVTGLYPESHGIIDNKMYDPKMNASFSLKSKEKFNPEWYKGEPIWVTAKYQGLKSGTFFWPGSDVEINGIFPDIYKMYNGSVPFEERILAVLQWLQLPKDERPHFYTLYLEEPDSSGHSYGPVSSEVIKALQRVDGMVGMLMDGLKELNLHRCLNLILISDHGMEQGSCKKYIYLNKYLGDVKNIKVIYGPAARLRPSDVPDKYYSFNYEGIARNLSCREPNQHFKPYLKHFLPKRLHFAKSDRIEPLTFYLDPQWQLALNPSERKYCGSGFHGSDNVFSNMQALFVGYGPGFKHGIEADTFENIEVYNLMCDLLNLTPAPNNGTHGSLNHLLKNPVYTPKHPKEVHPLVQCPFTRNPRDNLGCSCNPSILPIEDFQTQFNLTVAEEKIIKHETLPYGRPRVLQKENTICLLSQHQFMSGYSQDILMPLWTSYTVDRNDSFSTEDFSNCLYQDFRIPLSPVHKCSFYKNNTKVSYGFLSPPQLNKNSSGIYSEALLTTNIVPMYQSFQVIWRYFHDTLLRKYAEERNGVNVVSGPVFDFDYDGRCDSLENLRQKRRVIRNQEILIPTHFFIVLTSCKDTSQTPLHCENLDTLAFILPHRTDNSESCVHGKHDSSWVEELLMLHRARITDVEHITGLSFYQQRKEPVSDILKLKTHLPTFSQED
In words: ENPP1 enzyme assay with AMP-pNP substrate (hydrolysis of ATP analog). Particulars: AMP-pNP substrate (ATP analog); Ki from IC50 by Cheng-Prusoff; read-out: ENPP1 Inhibition _AMP-pNP: Ki. An outline of the steps:
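Reactions ran 20 min at 37 °C, pH 8.5 Tris buffer with NaCl, CaCl2, ZnCl2, using 300 µM AMP-pNP and 60 ng/well recombinant human ENPP1; inhibitor range 10 µM–30 pM, duplicates.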

The target in experiment [2] is T1, ENPP1. Put plainly: Indirect quantitation of 2',3'-cGAMP hydrolysis (AMP-Glo Assay kit). Particulars: cGAMP substrate; Ki from IC50 by Cheng-Prusoff; read-out: ENPP1 Inhibition -cGAMP: Ki.
The target of experiment [3] is T1, ENPP1. In words: Substrate selectivity ratio, inhibition of cGAMP hydrolysis versus ATP hydrolysis. As to conditions: ratio Ki AMP-pNP / Ki cGAMP. The method, then: The selectivity ratios for inhibition of cGAMP hydrolysis versus ATP hydrolysis were then calculated as follows: […]

The Ki is the equilibrium dissociation constant of an inhibitor or competing ligand from its target. In the case of `COc1cc2nccc(-c3ccc(CNS(N)(=O)=O)cc3)c2cc1F` [Example 239, N-(4-(6-fluoro-7-methoxyquinolin-4-yl)benzyl)sulfamide], the values for the Ki at ENPP1 [1] and on ENPP1 [2] were 0.1 to 1 µM and below 0.1 µM, respectively. For the same compound, at ENPP1 [3], the “Substrate Selectivity: Ki_AMP-pNP/Ki_cGAMP” value (shortened to “Substrate Selectivity”) was determined as 62.
Take `COc1ccc2c(Oc3ccc(NS(N)(=O)=O)cc3C#N)ccnc2c1` [Example 353]: the Ki on ENPP1 [1] is above 1 µM; at ENPP1 [2] it was 0.1 to 1 µM. Besides, at ENPP1 [3], the “Substrate Selectivity” value was above 74.
As to `COc1cc2nccc(N3CCc4cc(NS(N)(=O)=O)ccc43)c2cc1OC` [Example 281, N-(1-(6,7-dimethoxyquinolin-4-yl)indolin-5-yl)sulfamide], the Ki on ENPP1 [1] is 0.1 to 1 µM; on ENPP1 [2], below 0.1 µM. The “Substrate Selectivity” value on ENPP1 [3] is 30.7.
With `COc1cc2nccc(-c3ccc4c(c3)CCN(S(N)(=O)=O)C4)c2cc1OC` [Example 367, 6-(6,7-dimethoxyquinolin-4-yl)-3,4-dihydroisoquinoline-2(1H)-sulfonamide], the Ki at ENPP1 [1] is above 1 µM; at ENPP1 [2] it was below 0.1 µM. The “Substrate Selectivity” value at ENPP1 [3] is on record as above 35.
In the case of `COc1cc2nccc(Oc3ccc(NS(N)(=O)=O)cc3)c2cc1OC` [Example 125, N-(4-((6,7-dimethoxyquinolin-4-yl)oxy)phenyl)sulfamide], the Ki at ENPP1 [1] is above 1 µM; at ENPP1 [2], below 0.1 µM. The “Substrate Selectivity” value at ENPP1 [3] is reported as above 562.
The like results for `COc1cc2nccc(NCc3ccc(S(N)(=O)=O)cc3)c2cc1F` [Example 56, 4-(((6-fluoro-7-methoxyquinolin-4-,yl)amino)methyl)benzenesulfonamide] were, in that order, below 0.1 µM, below 0.1 µM and 6.3.
For the compound `COc1cc2ncc(C#N)c(-c3ccc(CNS(N)(=O)=O)cc3)c2cc1OC` [Example 241, N-(4-(3-cyano-6,7-dimethoxyquinolin-4-yl)benzyl)sulfamide], the values for the inhibitory constant (Ki) on ENPP1 [1] and on ENPP1 [2] were 0.1 to 1 µM and below 0.1 µM, respectively. Moreover, the “Substrate Selectivity” value on ENPP1 [3] stood at 49.0.
In the same order, the values of `COc1cc2nccc(N3CCCc4cc(NS(N)(=O)=O)ccc43)c2cc1OC` [Example 291, N-(6′,7′-dimethoxy-3,4-dihydro-2H-[1,4′-biquinolin]-6-yl)sulfamide] are above 1 µM, 0.1 to 1 µM and above 126.
In the same order, the values of `COc1cc2ncnc(N3CCC(CCNS(=O)(=O)NC(C)=O)CC3)c2cc1OC` [Example 200, N-(N-(2-(1-(6,7-dimethoxyquinazolin-4-yl)piperidin-4-yl)ethyl)sulfamoyl)acetamide] are above 1 µM, 0.1 to 1 µM and above 64.2.
With `COc1ccc2c(N3CCc4cc(NS(N)(=O)=O)ccc43)ccnc2c1` [Example 59, N-(1-(7-methoxyquinolin-4-yl)indolin-5-yl)sulfamide], the inhibition constant (Ki) on ENPP1 [1] and on ENPP1 [2] was below 0.1 µM throughout. On ENPP1 [3], the “Substrate Selectivity” value stood at 29.6.
Turning to `COc1ccc2c(-c3ccc(C(C)(C)NS(N)(=O)=O)cc3)ccnc2c1` [Example 357, N-(2-(4-(7-methoxyquinolin-4-yl)phenyl)propan-2-yl)sulfamide], the inhibition constant Ki at ENPP1 [1] is 0.1 to 1 µM; at ENPP1 [2], below 0.1 µM. The “Substrate Selectivity” value on ENPP1 [3] is given as above 18.
In the case of `N#Cc1cnc2ccccc2c1N1CCC2(CC1)CCN(S(N)(=O)=O)C2` [Example 167, 8-(3-cyanoquinolin-4-yl) -2,8-diazaspiro [4.5] decane-2-sulfonamide], the Ki is 0.1 to 1 µM on ENPP1 [1] and below 0.1 µM at ENPP1 [2]. Also, the “Substrate Selectivity” value on ENPP1 [3] stood at 10.6.
In the case of `COc1cc2ncc(C)c(-c3ccc4c(c3)CN(S(N)(=O)=O)CC4)c2cc1OC` [Example 60, 7-(6,7-dimethoxy-3-methylquinolin-4-yl)-3,4-dihydroisoquinoline-2(1H)-sulfonamide], the inhibitory constant (Ki) at ENPP1 [1] and on ENPP1 [2] was below 0.1 µM in each case. Moreover, at ENPP1 [3], the “Substrate Selectivity” value came out at 16.7.
For `COc1cc2ncc(F)c(N3CCC(CCNS(N)(=O)=O)CC3)c2cc1OC` [Example 66, N-(2-(1-(3-fluoro-6,7-dimethoxyquinolin-4-yl)piperidin-4-yl)ethyl)sulfamide], the inhibitory constant (Ki) on ENPP1 [1] and on ENPP1 [2] was below 0.1 µM each time. Moreover, the “Substrate Selectivity” value at ENPP1 [3] worked out at 35.1.
As for `COc1cc2ncnc(NC(c3ccc(NS(N)(=O)=O)cc3)C3CC3)c2cc1OC` (stereo not drawn) [Example 246, N-(4-(cyclopropyl((6,7-dimethoxyquinazolin-4-yl)amino)methyl)phenyl)sulfamide], the Ki is above 1 µM at ENPP1 [1] and below 0.1 µM on ENPP1 [2]. Further, on ENPP1 [3], the “Substrate Selectivity” value is recorded as above 87.7.
In the case of `COc1ccc2c(Oc3ccc4c(c3)CCN4S(N)(=O)=O)ccnc2c1` [Example 404, 5-((7-methoxyquinolin-4-yl)oxy)indoline-1-sulfonamide], the Ki on ENPP1 [1] is 0.1 to 1 µM; on ENPP1 [2], below 0.1 µM. In addition, on ENPP1 [3], the “Substrate Selectivity” value is above 103.
For the compound `COc1cc2nccc(Nc3ccc(NS(=O)(=O)c4ccccc4)cc3)c2cc1OC` [Example 153, N-(4-((6,7-dimethoxyquinolin-4-yl)amino)phenyl)benzenesulfonamide], the Ki at ENPP1 [1] was above 1 µM; at ENPP1 [2] it was below 0.1 µM. Also, the “Substrate Selectivity” value on ENPP1 [3] turned out to be 62.9.
In the same order, the values of `COc1ccc2c(-c3ccc4c(c3)CN(S(N)(=O)=O)CC4)ccnc2c1` [Example 305, 7-(7-methoxyquinolin-4-yl)-3,4-dihydroisoquinoline-2(1H)-sulfonamide] are 0.1 to 1 µM, below 0.1 µM and above 13.0.
In the same order, the values of `COc1cc2nccc(Oc3ccc(NS(N)(=O)=O)cc3F)c2cc1OC` [Example 201, N-(4-((6,7-dimethoxyquinolin-4-yl)oxy)-3-fluorophenyl)sulfamide] are 0.1 to 1 µM, below 0.1 µM and above 19.9.
On to `COc1cc2nccc(N3CCC(CCNS(=O)(=O)N4CCOCC4)CC3)c2cc1OC` [Example 147, N-(2-(1-(6,7-dimethoxyquinolin-4-yl)piperidin-4-yl)ethyl)morpholine-4-sulfonamide], for which the Ki on ENPP1 [1] was above 1 µM; at ENPP1 [2] it was 0.1 to 1 µM. The “Substrate Selectivity” value on ENPP1 [3] was above 117.
Turning to `COc1cc2nccc(-c3ccc(CN(C)S(N)(=O)=O)cc3)c2cc1OC` [Example 61, N-(4-(6,7-dimethoxyquinolin-4-yl)benzyl)-N-methylsulfamide], the inhibitory constant (Ki) on ENPP1 [1] and at ENPP1 [2] was below 0.1 µM each time. In addition, at ENPP1 [3], the “Substrate Selectivity” value turned out to be 23.7.
Regarding `COc1ccc2c(N3CCc4cc(NS(N)(=O)=O)ccc43)c(C)cnc2c1` [Example 378, N-(1-(7-methoxy-3-methylquinolin-4-yl)indolin-5-yl)sulfamide], the figures for the Ki on ENPP1 [1] and on ENPP1 [2] were 0.1 to 1 µM and below 0.1 µM, respectively. Moreover, the “Substrate Selectivity” value on ENPP1 [3] is listed as 42.
In the case of `COc1cc2ncnc(-c3ccc(CN(C4CC4)S(N)(=O)=O)cc3)c2cc1OC` [Example 285, N-cyclopropyl-N-(4-(6,7-dimethoxyquinazolin-4-yl)benzyl)sulfamide], the results for the Ki at ENPP1 [1] and at ENPP1 [2] were 0.1 to 1 µM and below 0.1 µM, respectively. At ENPP1 [3], the “Substrate Selectivity” value was above 28.3.
